Results as given in paper PMC10721329, “Quisinostat is a brain-penetrant radiosensitizer in glioblastoma” (JCI Insight, 2023).
pIC50: −log10 of the molar value. Several values for one entry are separate records, joined by “and”; a condition that tells them apart may be missing. Equal values may be shown once. Read-outs that look alike come from different tables or passages of the source.

Assays:
[1] = system: BT145 cells; test: Annexin V / ViaDye Red flow cytometry (apoptosis); format: cell-based, human; conditions: 75 nM QST
Excerpt: (§1) For apoptosis analysis, the Dead Cell Apoptosis Kit with Annexin V FITC and Propidium Iodide for Flow Cytometry (Thermo Fisher Scientific, V13242) was followed using the manufacturer instructions, with the exception that we employed ViaDye Red Fixable Viability Dye Kit (Cytek, SKU R7-60008) instead of propidium iodide to label necrotic cells. Samples were run on the AURORA 3L 24 color spectrum cytometers (Cytek), unmixed by SpectroFlo application, and analyzed with FlowJo 10.8.1 software (Beckton Dickinson). Recommended negative controls for flow cytometry include (1) no Annexin V FITC and no ViaDye Red, (2) Annexin V FITC alone, and (3) ViaDye Red alone. The following gating strategy was used: debris population was excluded as the subset of cells with low forward scatter in the forward scatter area versus side scatter area plot. After excluding the debris, cells were gated on the Annexin versus ViaDye Red log plot with the classification as live (Annexin V negative, ViaDye Red negative), early apoptotic (Annexin V positive, ViaDye Red negative), late apoptotic (Annexin V positive, ViaDye Red positive), or necrotic (Annexin V negative, ViaDye Red positive). The frequency of the different cell subsets was reported as frequency on the total cell population, excluding debris. […]

[2] = system: GB126 cells; test: Annexin V / ViaDye Red flow cytometry (apoptosis); format: cell-based, human; conditions: 86 nM QST
Excerpt: as §1

[3] = Plasma pharmacokinetics by route of administration (IP, SC, OG); format: in vivo, athymic nude mice; conditions: for AUC(0-t): athymic nude (Foxn1nu), single dose 10 mg/kg, athymic nude mice, read-out: AUClast (plasma)
Method: Because the efficacy of QST in preclinical models of brain tumors remains controversial, and because previous studies employed various drug delivery methods, we sought to understand how different routes of administration affect the bioavailability of QST in mice. Three routes of administration were compared to determine the optimal dosing route to obtain the highest plasma exposure to QST over time. We treated athymic nude mice with a single dose of QST (10 mg/kg) through intraperitoneal (IP), subcutaneous (SC), or oral gavage (OG) delivery and collected blood at 0.5, 1, 2, 4, 6, 8, and 24 hours after dosing from individual mice for PK analysis (Figure 5A). […] Therefore, IP delivery was the optimal route of administration to maximize the bioavailability of QST in athymic nude mice.
QST concentrations in specimens were measured using reverse-phase LC on the AB SCIEX QTRAP6500+ LC-MS/MS system by operating electrospray in the positive ion mode. For liquid chromatographic separation, gradient elution was performed using a Phenomenex Kinetex F5 100 Å column (100 × 2.1 mm, 2.6 μm). The initial composition of the mobile phase was 70% phase A (0.1% formic acid in water) and 30% phase B (0.1% formic acid in 1:1 acetonitrile/methanol) with a 0.35 mL/min flow rate. Gradient elution was achieved as follows: mobile phase (B) was maintained at 30% from 0 to 0.3 minutes, increased to 95% from 0.3 to 0.8 minutes, maintained at 95% from 0.8 to 2.5 minutes, and decreased to 30% from 2.5 to 2.8 minutes. The total run time was 3.5 minutes. The internal standard used in this study was D8-infigratinib. The retention times for QST and D8-infigratinib were 1.6 and 1.8 minutes, respectively. Mass-to-charge ratio transitions were as follows: 395.20 → 144.00 (QST) and 568.08 → 321.00 (D8-infigratinib). LC-MS/MS analysis was performed using an Analyst 1.7 Chromatographic Data System. See Supplemental Methods for detailed PK experiments. […]
Preparation of QST for In Vivo Use
For in vivo preparation, QST was dissolved in 50% polyethylene glycol (PEG) 300, 50% sterile water solution for 10 mg/kg dosing. The suspension was then sonicated for 10 minutes to allow the drug to completely dissolve. Finally, the pH of both the drug and the vehicle solutions was adjusted to 7.4 before intraperitoneal dosing.
Determination of Optimal Administration Route
Foxn1nu nude male mice (The Jackson Laboratory) were used to determine the drug administration route that would result in the best QST bioavailability. Three cohorts of mice were treated with a single dose of 10 mg/kg QST delivered through intraperitoneal, subcutaneous, or oral gavage routes (3 mice per cohort). Following administration of the single dose, approximately 30 µL of blood was drawn from the tip of the tails at the following time points: 0.5, 1, 2, 4, 6, 8, and 24 hours. The collected blood was immediately centrifuged at 3000 rpm for 10 minutes at 4 °C to separate plasma, which was subsequently flash frozen. At the 24 - hour time point, following the last blood sample collection, mice were sacrificed and the whole brains from each mouse were dissected and flash-frozen for subsequent analysis. […]
Calibration Standards and Quality Control Samples
Stock solutions of standard (1 mM QST) and IS (250 µM D8-infigratinib) were prepared in acetonitrile. Working solutions for calibration curve standards and quality controls (QCs) were prepared by dilutions with a 40% methanol mixture aqueous solution. The IS precipitation solution (10 nM) was prepared from the IS stock solutions by dilution with methanol. Calibration standards and batch qualifying QCs were freshly spiked for every batch. For sample analysis in human and mouse matrices, calibration standards were prepared in bulk by spiking appropriate amounts of working solutions into blank human plasma, used as a surrogate matrix due to the instability of QST in mouse plasma. For sample analysis in neural stem cell media and cell […]

[4] = system: HDAC2; set-up: method as in PMID 32608981; conditions: cited from earlier work
[5] = representative plot, quadrant assigned by inference

SMILES: Cn1cc(CNCC2CCN(c3ncc(C(=O)NO)cn3)CC2)c2ccccc21 [QST, quisinostat]
- Apoptotic, Annexin+ ViaDye - (%) ([1]; replicates): 60% and 53.4% and 59.8%
- Dead, Annexin+ ViaDye + (%) ([1]; replicates): 5.66% and 6.66% and 4.49%
- ViaDyeRed / Annexin V-FITC dot plot quadrant, live (Annexin-, ViaDye-) [1, 5]: 39.3
- ViaDyeRed / Annexin V-FITC dot plot quadrant, necrotic (Annexin-, ViaDye+) [1, 5]: 0.65
- Apoptotic, Annexin+ ViaDye - (%) ([2]; replicates): 9.54% and 12.5% and 8.59%
- Dead, Annexin+ ViaDye + (%) ([2]; replicates): 12.7% and 14.5% and 9.91%
- ViaDyeRed / Annexin V-FITC dot plot quadrant, live (Annexin-, ViaDye-) [2, 5]: 71.9
- ViaDyeRed / Annexin V-FITC dot plot quadrant, necrotic (Annexin-, ViaDye+) [2, 5]: 5.85
- [QST] in plasma ([3]; IP 10 mg/kg single dose, 0.5 h, individual mice, 10 mg/kg): 347 nmol/L and 1180 nmol/L and 730 nmol/L
- [QST] in plasma ([3]; IP 10 mg/kg single dose, 1 h, individual mice, 10 mg/kg): 268 nmol/L and 778 nmol/L and 432 nmol/L
- [QST] in plasma ([3]; IP 10 mg/kg single dose, 2 h, individual mice, 10 mg/kg): 70.8 nmol/L and 154 nmol/L and 237 nmol/L
- [QST] in plasma ([3]; IP 10 mg/kg single dose, 4 h, individual mice, 10 mg/kg): 22.3 nmol/L and 40.2 nmol/L and 126 nmol/L
- [QST] in plasma ([3]; IP 10 mg/kg single dose, 6 h, individual mice, 10 mg/kg): 12.5 nmol/L and 15.1 nmol/L and 47 nmol/L
- [QST] in plasma ([3]; IP 10 mg/kg single dose, 8 h, individual mice, 10 mg/kg): 8.68 nmol/L
- [QST] in plasma ([3]; IP 10 mg/kg single dose, 24 h, individual mice, 10 mg/kg): 0.963 nmol/L and 0.894 nmol/L
- [QST] in plasma ([3]; OG 10 mg/kg single dose, 0.5 h, individual mice): not detectable and 7.12 nmol/L
- [QST] in plasma ([3]; OG 10 mg/kg single dose, 1 h, individual mice): not detectable and 4.92 nmol/L
- [QST] in plasma ([3]; OG 10 mg/kg single dose, 2 h, individual mice): not detectable and 10.8 nmol/L
- [QST] in plasma ([3]; OG 10 mg/kg single dose, 4 h, individual mice): not detectable and 44.7 nmol/L and 3.91 nmol/L
- [QST] in plasma ([3]; OG 10 mg/kg single dose, 6 h, individual mice): not detectable and 5.16 nmol/L
- [QST] in plasma ([3]; OG 10 mg/kg single dose, 8 h, individual mice): not detectable and 1.29 nmol/L and 4.22 nmol/L
- [QST] in plasma ([3]; OG 10 mg/kg single dose, 24 h, individual mice): not detectable and 0.965 nmol/L
- [QST] in plasma ([3]; SC 10 mg/kg single dose, 0.5 h, individual mice, 10 mg/kg): 482 nmol/L and 355 nmol/L
- [QST] in plasma ([3]; SC 10 mg/kg single dose, 1 h, individual mice, 10 mg/kg): 617 nmol/L and 493 nmol/L
- [QST] in plasma ([3]; SC 10 mg/kg single dose, 2 h, individual mice, 10 mg/kg): 169 nmol/L and 281 nmol/L and 430 nmol/L
- [QST] in plasma ([3]; SC 10 mg/kg single dose, 4 h, individual mice, 10 mg/kg): 41.6 nmol/L and 61.2 nmol/L and 96.2 nmol/L
- [QST] in plasma ([3]; SC 10 mg/kg single dose, 6 h, individual mice, 10 mg/kg): 14.4 nmol/L and 21.7 nmol/L and 34.8 nmol/L
- [QST] in plasma ([3]; SC 10 mg/kg single dose, 8 h, individual mice, 10 mg/kg): 7.48 nmol/L and 13.4 nmol/L and 15.5 nmol/L
- [QST] in plasma ([3]; SC 10 mg/kg single dose, 24 h, individual mice, 10 mg/kg): 0.909 nmol/L and 0.187 nmol/L and 0.208 nmol/L
- concentration at 8 h ([3]; male, Foxn1nu athymic nude, mouse, plasma, ip, 10 mg/kg, IP 10 mg/kg single dose, 8 h, individual mice, read-out: [QST] in plasma): 15.9 nM
- concentration at 24 h ([3]; male, Foxn1nu athymic nude, mouse, plasma, ip, 10 mg/kg, IP 10 mg/kg single dose, 24 h, individual mice, read-out: [QST] in plasma): 1.2 nM
- concentration at 0.5 h ([3]; male, Foxn1nu athymic nude, mouse, plasma, oral, 10 mg/kg, OG 10 mg/kg single dose, 0.5 h, individual mice, read-out: [QST] in plasma): 8.17 nM
- concentration at 1 h ([3]; male, Foxn1nu athymic nude, mouse, plasma, oral, 10 mg/kg, OG 10 mg/kg single dose, 1 h, individual mice, read-out: [QST] in plasma): 7.64 nM
- concentration at 2 h ([3]; male, Foxn1nu athymic nude, mouse, plasma, oral, 10 mg/kg, OG 10 mg/kg single dose, 2 h, individual mice, read-out: [QST] in plasma): 8.86 nM
- concentration at 6 h ([3]; male, Foxn1nu athymic nude, mouse, plasma, oral, 10 mg/kg, OG 10 mg/kg single dose, 6 h, individual mice, read-out: [QST] in plasma): 4.91 nM
- concentration at 24 h ([3]; male, Foxn1nu athymic nude, mouse, plasma, oral, 10 mg/kg, OG 10 mg/kg single dose, 24 h, individual mice, read-out: [QST] in plasma): 0.81 nM
- concentration at 0.5 h ([3]; male, Foxn1nu athymic nude, mouse, plasma, sc, 10 mg/kg, SC 10 mg/kg single dose, 0.5 h, individual mice, read-out: [QST] in plasma): 300 nM
- concentration at 1 h ([3]; male, Foxn1nu athymic nude, mouse, plasma, sc, 10 mg/kg, SC 10 mg/kg single dose, 1 h, individual mice, read-out: [QST] in plasma): 418 nM
- concentration at 8 h ([3]; male, Foxn1nu athymic nude, mouse, plasma, IP 10 mg/kg single dose, 8 h, individual mice, read-out: [QST] in plasma): 25.7 nM
- AUC(0-t) ([3]; male, mouse, plasma, oral, OG): 0.106 µM·h
- AUC(0-t) ([3]; male, mouse, plasma, IP): 1.2 µM·h
- AUC(0-t) ([3]; male, mouse, plasma, SC): 1.19 µM·h
